EC50 data for one compound are collected here from BindingDB's records for patent US20250171467 (Merck Sharp & Dohme, 2025).

The target of the test is T1, Ceramide glucosyltransferase (Homo sapiens, UniProt Q16739).
T1 sequence (Q16739 whole entry): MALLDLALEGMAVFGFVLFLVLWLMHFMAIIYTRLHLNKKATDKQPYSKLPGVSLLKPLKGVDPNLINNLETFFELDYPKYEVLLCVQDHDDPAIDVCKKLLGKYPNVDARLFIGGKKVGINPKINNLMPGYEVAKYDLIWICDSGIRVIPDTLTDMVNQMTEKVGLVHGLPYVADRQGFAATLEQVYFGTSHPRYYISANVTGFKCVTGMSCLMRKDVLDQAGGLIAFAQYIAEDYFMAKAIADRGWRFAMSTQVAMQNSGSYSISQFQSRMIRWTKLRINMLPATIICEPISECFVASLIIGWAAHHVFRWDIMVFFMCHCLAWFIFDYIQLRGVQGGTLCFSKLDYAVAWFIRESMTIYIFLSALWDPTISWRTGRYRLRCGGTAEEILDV
Put plainly: UDP-Glo Glucosylceramide Synthase Biochemical Assay. On the procedure:
An aliquot of GCS enzyme (1.5 μg crude golgi preparation, total protein) and titrated test compound were aliquoted to each well and incubated for 30 minutes at room temperature. […] An equivalent volume of substrate mixture was then added to each well. Following a 20 h incubation at room temperature to allow for GCS turnover of substrate, an equal volume of UDP detection reagent (Promega) was added to each well and incubated for an additional 75 minutes at room temperature to simultaneously convert the accumulated UDP product into ATP and generate light in a luciferase reaction. The generated light was detected using a luminometer.

The EC50 is the concentration needed to bring the measured effect to its halfway point. A higher EC50 goes with a less potent agent.

With `COc1ccc(-n2nc(C(=O)N3CCCN(CCF)CC3)c3c2CCOC3)cc1` [US20250171467, Compound 11], the response was half-maximal at 12 µM (EC50).
